Reference: patent US20260028336A1 (Arcus Biosciences, Inc., priority 2022, published 2026)

Experiments:
Cbl-b = target: T1, Cbl-b (Homo sapiens, UniProt Q13191); assay: Cbl-b probe displacement HTRF binding assay; conditions: 0.4 nM biotinylated Cbl-b, 150 nM BODIPY probe
T1 construct: biotin (biotinylated)
How it was run: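 Biotinylated Cbl-b was preincubated with compound for 60 min at room temperature in HEPES/NaCl/Triton/TCEP/BSA buffer. BODIPY probe was added for 15 min, followed by streptavidin-terbium, and the HTRF signal was read. Displacement was normalised to DMSO and no-protein controls, and affinity was obtained from a four-parameter dose-response fit.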

Jurkat cells = assay: IL-2 secretion assay in CD3/CD28-activated Jurkat cells (AlphaLISA); format: cell-based; conditions: Homo sapiens, CD3/CD28 T Cell Activator, 24 h, IL-2 AlphaLISA
How it was run: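 Jurkat cells (50,000/well) were preincubated 1 h at 37° C with compound in a 16-point 1:2 series spanning 10 μM to 300 pM final. Cells were then activated with CD3/CD28 T cell activator, and secreted IL-2 was read by AlphaLISA. EC50 came from 4-parameter logistic fits.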

T1 sequence (Q13191 whole entry, species assumed): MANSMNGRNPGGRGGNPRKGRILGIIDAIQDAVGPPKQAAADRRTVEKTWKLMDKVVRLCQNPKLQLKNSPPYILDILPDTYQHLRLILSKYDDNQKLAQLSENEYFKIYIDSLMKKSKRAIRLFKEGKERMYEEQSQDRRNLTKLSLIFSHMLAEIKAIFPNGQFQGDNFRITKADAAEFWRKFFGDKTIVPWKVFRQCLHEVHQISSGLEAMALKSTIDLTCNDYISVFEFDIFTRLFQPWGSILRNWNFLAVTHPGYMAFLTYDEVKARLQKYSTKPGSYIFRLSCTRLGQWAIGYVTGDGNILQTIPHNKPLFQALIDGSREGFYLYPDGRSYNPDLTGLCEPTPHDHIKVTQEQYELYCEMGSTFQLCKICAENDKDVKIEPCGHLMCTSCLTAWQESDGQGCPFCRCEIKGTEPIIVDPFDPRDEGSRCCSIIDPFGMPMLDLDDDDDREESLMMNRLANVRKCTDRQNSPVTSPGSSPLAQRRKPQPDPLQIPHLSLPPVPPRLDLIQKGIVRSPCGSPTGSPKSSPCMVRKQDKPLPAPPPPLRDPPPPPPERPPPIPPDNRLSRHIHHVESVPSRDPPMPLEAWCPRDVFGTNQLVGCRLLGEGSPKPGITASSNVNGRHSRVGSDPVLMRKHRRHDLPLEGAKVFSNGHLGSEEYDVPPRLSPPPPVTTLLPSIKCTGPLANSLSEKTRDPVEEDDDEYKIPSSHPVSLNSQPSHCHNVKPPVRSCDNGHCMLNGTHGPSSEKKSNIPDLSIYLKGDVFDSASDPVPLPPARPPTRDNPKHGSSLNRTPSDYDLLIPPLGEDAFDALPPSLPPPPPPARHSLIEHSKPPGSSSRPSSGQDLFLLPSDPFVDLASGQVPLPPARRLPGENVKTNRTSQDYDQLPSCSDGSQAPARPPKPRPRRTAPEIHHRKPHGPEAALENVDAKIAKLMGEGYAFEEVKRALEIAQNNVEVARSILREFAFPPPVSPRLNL

| IC50 (Cbl-b) [µM] | EC50 (Jurkat cells) [µM] | Compound |
| --- | --- | --- |
| < 0.1 | 0.1 to 1 | Cn1cnnc1C1(c2cccc(-n3cc(C4CC4)c4cc(CN5CCC6(CC6)C5)[nH]c4c3=O)c2)CC2(CC2)C1 [Example 70, 2-({5-azaspiro[2.4]heptan-5-yl}methyl)-4-cyclopropyl-6-{3-[5-(4-methyl-4H-1,2,4-triazol-3-yl)spiro[2.3]hexan-5-yl]phenyl}-1H,6H,7H-pyrrolo[2,3-c]pyridin-7-one] |
| < 0.1 | 0.1 to 1 | C[C@@H]1CN(Cc2cc3c(C4CC4)cn(-c4cccc(C5(c6nncn6C)CC6(CC6)C5)c4)c(=O)c3[nH]2)CCO1 [Example 71, 4-cyclopropyl-2-[[(2R)-2-methylmorpholin-4-yl]methyl]-6-[3-[5-(4-methyl-1,2,4-triazol-3-yl)spiro[2.3]hexan-5-yl]phenyl]-1H-pyrrolo[2,3-c]pyridin-7-one] |
| 0.1 to 1 | 1 to 5 | CC(C)[C@H]1CNCCN1Cc1cc2c(C3CC3)cn(-c3cccc(C4(c5nncn5C)CC5(CC5)C4)c3)c(=O)c2[nH]1 [Example 72, 4-cyclopropyl-6-{3-[5-(4-methyl-4H-1,2,4-triazol-3-yl)spiro[2.3]hexan-5-yl]phenyl}-2-{[(2S)-2-(propan-2-yl)piperazin-1-yl]methyl}-1H,6H,7H-pyrrolo[2,3-c]pyridin-7-one] |
| < 0.1 | 0.1 to 1 | CC(C)[C@H]1CN(C)CCN1Cc1cc2c(C3CC3)cn(-c3cccc(C4(c5nncn5C)CC5(CC5)C4)c3)c(=O)c2[nH]1 [Example 73, 4-cyclopropyl-2-{[(2S)-4-methyl-2-(propan-2-yl)piperazin-1-yl]methyl}-6-{3-[5-(4-methyl-4H-1,2,4-triazol-3-yl)spiro[2.3]hexan-5-yl]phenyl}-1H,6H,7H-pyrrolo[2,3-c]pyridin-7-one] |
| < 0.1 | < 0.1 | C[C@H]1CCCN(Cc2cc3c(C4CC4)cn(-c4cccc(C5(c6nncn6C)CC6(CC6)C5)c4)c(=O)c3[nH]2)C1 [Example 74, 4-cyclopropyl-2-[[(3S)-3-methylpiperidin-1-yl]methyl]-6-[3-[5-(4-methyl-1,2,4-triazol-3-yl)spiro[2.3]hexan-5-yl]phenyl]-1H-pyrrolo[2,3-c]pyridin-7-one] |
| < 0.1 | < 0.1 | C[C@H]1CCCN(Cc2cc3c(C4CC4)cn(-c4cccc(C5(Cc6nncn6C)COC5)c4)c(=O)c3[nH]2)C1 [Example 75, 4-cyclopropyl-2-[[(3S)-3-methylpiperidin-1-yl]methyl]-6-[3-[3-[(4-methyl-1,2,4-triazol-3-yl)methyl]oxetan-3-yl]phenyl]-1H-pyrrolo[2,3-c]pyridin-7-one] |
| < 0.1 | 0.1 to 1 | Cn1cnnc1CC1(c2cccc(-n3cc(C4CC4)c4cc(CN5CCC6(CC6)C5)[nH]c4c3=O)c2)COC1 [Example 76, 2-({5-azaspiro[2.4]heptan-5-yl}methyl)-4-cyclopropyl-6-(3-{3-[(4-methyl-4H-1,2,4-triazol-3-yl)methyl]oxetan-3-yl}phenyl)-1H,6H,7H-pyrrolo[2,3-c]pyridin-7-one] |
| < 0.1 | < 0.1 | C[C@H]1CCCN(Cc2cc3c(C4CC4)cn(-c4cccc(C5(c6nncn6C)CC(F)(F)C5)c4)c(=O)c3[nH]2)C1 [Example 78, 4-cyclopropyl-6-[3-[3,3-difluoro-1-(4-methyl-1,2,4-triazol-3-yl)cyclobutyl]phenyl]-2-[[(3S)-3-methylpiperidin-1-yl]methyl]-1H-pyrrolo[2,3-c]pyridin-7-one] |
| 0.1 to 1 | 0.1 to 1 | Cn1cnnc1C1(c2cccc(-n3cc(C4CC4)c4cc(CN5CCC(F)(F)C5)[nH]c4c3=O)c2)CC(F)(F)C1 [Example 79, 4-cyclopropyl-6-{3-[3,3-difluoro-1-(4-methyl-4H-1,2,4-triazol-3-yl)cyclobutyl]phenyl}-2-[(3,3-difluoropyrrolidin-1-yl)methyl]-1H,6H,7H-pyrrolo[2,3-c]pyridin-7-one] |
| < 0.1 | 1 to 5 | Cn1cnnc1C1(c2cccc(-n3cc(C4CC4)c4cc(CN5CCC[C@@H]5CO)[nH]c4c3=O)c2)CC(F)(F)C1 [Example 82, 4-cyclopropyl-6-{3-[3,3-difluoro-1-(4-methyl-4H-1,2,4-triazol-3-yl)cyclobutyl]phenyl}-2-{[(2R)-2-(hydroxymethyl)pyrrolidin-1-yl]methyl}-1H,6H,7H-pyrrolo[2,3-c]pyridin-7-one] |
| < 0.1 | 0.1 to 1 | Cn1cnnc1C1(c2cccc(-n3cc(C4CC4)c4cc(CNCC5(O)CCC5)[nH]c4c3=O)c2)CC(F)(F)C1 [Example 83, 4-cyclopropyl-6-{3-[3,3-difluoro-1-(4-methyl-4H-1,2,4-triazol-3-yl)cyclobutyl]phenyl}-2-({[(1-hydroxycyclobutyl)methyl]amino}methyl)-1H,6H,7H-pyrrolo[2,3-c]pyridin-7-one] |
| < 0.1 | 1 to 5 | CC(O)C1(NCc2cc3c(C4CC4)cn(-c4cccc(C5(c6nncn6C)CC(F)(F)C5)c4)c(=O)c3[nH]2)CC1 (stereo not shown) [Example 84, 4-cyclopropyl-6-{3-[3,3-difluoro-1-(4-methyl-4H-1,2,4-triazol-3-yl)cyclobutyl]phenyl}-2-({[1-(1-hydroxyethyl)cyclopropyl]amino}methyl)-1H,6H,7H-pyrrolo[2,3-c]pyridin-7-one] |
| < 0.1 | 0.1 to 1 | Cn1cnnc1C1(c2cccc(-n3cc(C4CC4)c4cc(CNCC5(CO)CC5)[nH]c4c3=O)c2)CC(F)(F)C1 [Example 85, 4-cyclopropyl-6-{3-[3,3-difluoro-1-(4-methyl-4H-1,2,4-triazol-3-yl)cyclobutyl]phenyl}-2-[({[1-(hydroxymethyl)cyclopropyl]methyl}amino)methyl]-1H,6H,7H-pyrrolo[2,3-c]pyridin-7-one] |
| 0.1 to 1 | 1 to 5 | Cn1cnnc1C1(c2cccc(-n3cc(C4CC4)c4cc(CN5CCOC6(CC6)C5)[nH]c4c3=O)c2)CC(F)(F)C1 [Example 86, 4-cyclopropyl-6-{3-[3,3-difluoro-1-(4-methyl-4H-1,2,4-triazol-3-yl)cyclobutyl]phenyl}-2-({4-oxa-7-azaspiro[2.5]octan-7-yl}methyl)-1H,6H,7H-pyrrolo[2,3-c]pyridin-7-one] |
| 0.1 to 1 | > 5 | Cn1cnnc1C1(c2cccc(-n3cc(C4CC4)c4cc(CN[C@@H]5CCCS(=O)(=O)C5)[nH]c4c3=O)c2)CC(F)(F)C1 [Example 87, (3R)-3-{[(4-cyclopropyl-6-{3-[3,3-difluoro-1-(4-methyl-4H-1,2,4-triazol-3-yl)cyclobutyl]phenyl}-7-oxo-1H,6H,7H-pyrrolo[2,3-c]pyridin-2-yl)methyl]amino}-1λ^6-thiane-1,1-dione] |
| < 0.1 | < 0.1 | Cn1cnnc1C1(c2cccc(-n3cc(C4CC4)c4cc(CN5CCC6(CC6)C5)[nH]c4c3=O)c2)CC(F)(F)C1 [Example 88, 2-({5-azaspiro[2.4]heptan-5-yl}methyl)-4-cyclopropyl-6-{3-[3,3-difluoro-1-(4-methyl-4H-1,2,4-triazol-3-yl)cyclobutyl]phenyl}-1H,6H,7H-pyrrolo[2,3-c]pyridin-7-one] |
| < 0.1 | 0.1 to 1 | Cn1cnnc1C1(c2cccc(-n3cc(C4CC4)c4cc(CNC5(CF)CCC5)[nH]c4c3=O)c2)CC(F)(F)C1 [Example 89, 4-cyclopropyl-6-{3-[3,3-difluoro-1-(4-methyl-4H-1,2,4-triazol-3-yl)cyclobutyl]phenyl}-2-({[1-(fluoromethyl)cyclobutyl]amino}methyl)-1H,6H,7H-pyrrolo[2,3-c]pyridin-7-one] |
| > 5 | > 5 | Cn1cnnc1C1(c2cccc(-n3cc(C4CC4)c4cc(CNc5ccc(Cl)cc5F)[nH]c4c3=O)c2)CC(F)(F)C1 [Example 90, 2-{[(4-chloro-2-fluorophenyl)amino]methyl}-4-cyclopropyl-6-{3-[3,3-difluoro-1-(4-methyl-4H-1,2,4-triazol-3-yl)cyclobutyl]phenyl}-1H,6H,7H-pyrrolo[2,3-c]pyridin-7-one] |
| 0.1 to 1 | > 5 | Cn1cnnc1C1(c2cccc(-n3cc(C4CC4)c4cc(CN[C@@H]5CCOC5)[nH]c4c3=O)c2)CC(F)(F)C1 [Example 91, 4-cyclopropyl-6-{3-[3,3-difluoro-1-(4-methyl-4H-1,2,4-triazol-3-yl)cyclobutyl]phenyl}-2-{[(oxolan-3-yl)amino]methyl}-1H,6H,7H-pyrrolo[2,3-c]pyridin-7-one] |
| 0.1 to 1 | > 5 | Cn1cnnc1C1(c2cccc(-n3cc(C4CC4)c4cc(CN[C@H]5COC[C@@H]5O)[nH]c4c3=O)c2)CC(F)(F)C1 [Example 92] |
| 0.1 to 1 | 1 to 5 | Cn1cnnc1C1(c2cccc(-n3cc(C4CC4)c4cc(CN5CC[C@@H](F)[C@H](O)C5)[nH]c4c3=O)c2)CC(F)(F)C1 [Example 93, 4-cyclopropyl-6-{3-[3,3-difluoro-1-(4-methyl-4H-1,2,4-triazol-3-yl)cyclobutyl]phenyl}-2-{[(3R,4R)-4-fluoro-3-hydroxypiperidin-1-yl]methyl}-1H,6H,7H-pyrrolo[2,3-c]pyridin-7-one] |
| < 0.1 | < 0.1 | C[C@@H]1CN(Cc2cc3c(C4CC4)cn(-c4cccc(C5(c6nncn6C)CC(F)(F)C5)c4)c(=O)c3[nH]2)CCO1 [Example 94, 4-cyclopropyl-6-[3-[3,3-difluoro-1-(4-methyl-1,2,4-triazol-3-yl)cyclobutyl]phenyl]-2-[[(2R)-2-methylmorpholin-4-yl]methyl]-1H-pyrrolo[2,3-c]pyridin-7-one] |
| < 0.1 | < 0.1 | C[C@H]1CCCN(Cc2cc3c(C4CC4)cn(-c4cccc([C@]5(c6nncn6C)C[C@H](OC(F)F)C5)c4)c(=O)c3[nH]2)C1 [Example 95, trans-4-cyclopropyl-6-[3-[3-(difluoromethoxy)-1-(4-methyl-1,2,4-triazol-3-yl)cyclobutyl]phenyl]-2-[[(3S)-3-methylpiperidin-1-yl]methyl]-1H-pyrrolo[2,3-c]pyridin-7-one] |
